Results on 23 compounds are retold here after patent publication US9255103B2, “Substituted pyrazolo[1,5-a]pyrazines as mGluR5 receptor modulators” (Vanderbilt University, priority 2010, dated 2016).

Read-outs that look alike come from different tables or passages of the source. Bounds are passed on as bounds.

Series [1] has as its target human mGluR5a receptor (Homo sapiens, UniProt P41594). The series is described as follows: Cell-based functional Ca2+ mobilization assay (FDSS), potentiation of glutamate EC20 response in H10H cell line. The settings on record: for pEC50 / EC50: HEK cells transfected with human mGluR5 (H10H), presence of glutamate EC20; for Emax: percent of maximal glutamate response, human mGluR5 HEK cells. The procedure:
Human embryonic kidney (HEK) cells transfected with rat mGluR5 were plated in clear bottom assay plates for assay in a Functional Drug Screening System (FDSS). In the alternative assay, HEK cells transfected with human mGluR5 (H10H cell line) were plated for assay in the FDSS. […] The cells were loaded with a Ca^2+-sensitive fluorescent dye (e.g., Fluo-4), and the plates were washed and placed in the FDSS instrument. After establishment of a fluorescence baseline for twelve seconds, the compounds of the present invention were added to the cells, and the response in cells was measured. Alternatively, in various further aspects, after establishment of a fluorescence baseline for about three seconds, the compounds of the present invention were added to the cells, and the response in cells was measured. Five minutes later, an mGluR5 agonist (e.g., glutamate, 3,5-dihydroxyphenylglycine, or quisqualate) was added to the cells, and the response of the cells was measured.
The above described assay operated in two modes. In the first mode, a range of concentrations of the present compounds were added to cells, followed by a single fixed concentration of agonist. If a compound acted as a potentiator, an EC50 value for potentiation and a maximum extent of potentiation by the compound at this concentration of agonist was determined by non-linear curve fitting. In the second mode, several fixed concentrations of the present compounds were added to various wells on a plate, followed by a range of concentrations of agonist for each concentration of present compound; the EC50 values for the agonist at each concentration of compound were determined by non-linear curve fitting. A decrease in the EC50 value of the agonist with increasing concentrations of the present compounds (a leftward shift of the agonist concentration-response curve) is an indication of the degree of mGluR5 potentiation at a given concentration of the present compound. An increase in the EC50 value of the agonist with increasing concentrations of the present compounds (a rightward shift of the agonist concentration-response curve) is an indication of the degree of mGluR5 antagonism at a given concentration of the present compound. The second mode also indicates whether the present compounds also affect the maximum response to mGluR5 to agonists.
The mGluR5 activity was determined using the metabotropic glutamate receptor activity assays in human embryonic kidney cells as described herein, wherein the human embryonic kidney cells were transfected with human mGluR5. The compounds in Table 1 were synthesized with methods identical or analogous to those shown herein. The requisite starting materials were commercially available, described in the literature, or readily synthesized by one skilled in the art of organic synthesis.
Human mGluR5a cDNA in pCMV6-XL6 mammalian expression plasmid was purchased from OriGene Technologies, Inc. (catalogue number SC326357) and subcloned into pcDNA3.1(−). Human embryonic kidney (HEK)293A cells were then transfected with human mGluR5a pcDNA3.1(−) using LipofectAmine2000 (Invitrogen) and monoclones were selected and tested for functional response using a Ca^2+ mobilization assay. Monoclones were named for the species (“H” for human) plus the location on the plate (e.g. “10H”).
HEK cells transfected with the human mGluR5a receptor (H10H cell line) were plated at 15,000 cells/well in clear-bottomed poly-D-lysine-coated assay plates (BD Falcon) in glutamate-glutamine-free growth medium and incubated overnight at 37° C. and 5% CO2. The following day, the growth medium was removed and the cells were washed with assay buffer containing 1× Hank's balanced salt solution (Invitrogen, Carlsbad, Calif.), 20 mM HEPES, 2.5 mM probenecid, pH 7.4 and left with 20 μL of this reagent.
For orientation: A change in cytosolic calcium serves as a functional read-out for many receptors and channels.

The mark [2] stands for this setting: maximum average response at a single concentration.
Where [3] appears, read: HEK293, maximum average response at a single concentration, read-out: Emax.

human mGluR5a receptor, sequence (P41594 21-1180 isoform P41594-2 limits assumed): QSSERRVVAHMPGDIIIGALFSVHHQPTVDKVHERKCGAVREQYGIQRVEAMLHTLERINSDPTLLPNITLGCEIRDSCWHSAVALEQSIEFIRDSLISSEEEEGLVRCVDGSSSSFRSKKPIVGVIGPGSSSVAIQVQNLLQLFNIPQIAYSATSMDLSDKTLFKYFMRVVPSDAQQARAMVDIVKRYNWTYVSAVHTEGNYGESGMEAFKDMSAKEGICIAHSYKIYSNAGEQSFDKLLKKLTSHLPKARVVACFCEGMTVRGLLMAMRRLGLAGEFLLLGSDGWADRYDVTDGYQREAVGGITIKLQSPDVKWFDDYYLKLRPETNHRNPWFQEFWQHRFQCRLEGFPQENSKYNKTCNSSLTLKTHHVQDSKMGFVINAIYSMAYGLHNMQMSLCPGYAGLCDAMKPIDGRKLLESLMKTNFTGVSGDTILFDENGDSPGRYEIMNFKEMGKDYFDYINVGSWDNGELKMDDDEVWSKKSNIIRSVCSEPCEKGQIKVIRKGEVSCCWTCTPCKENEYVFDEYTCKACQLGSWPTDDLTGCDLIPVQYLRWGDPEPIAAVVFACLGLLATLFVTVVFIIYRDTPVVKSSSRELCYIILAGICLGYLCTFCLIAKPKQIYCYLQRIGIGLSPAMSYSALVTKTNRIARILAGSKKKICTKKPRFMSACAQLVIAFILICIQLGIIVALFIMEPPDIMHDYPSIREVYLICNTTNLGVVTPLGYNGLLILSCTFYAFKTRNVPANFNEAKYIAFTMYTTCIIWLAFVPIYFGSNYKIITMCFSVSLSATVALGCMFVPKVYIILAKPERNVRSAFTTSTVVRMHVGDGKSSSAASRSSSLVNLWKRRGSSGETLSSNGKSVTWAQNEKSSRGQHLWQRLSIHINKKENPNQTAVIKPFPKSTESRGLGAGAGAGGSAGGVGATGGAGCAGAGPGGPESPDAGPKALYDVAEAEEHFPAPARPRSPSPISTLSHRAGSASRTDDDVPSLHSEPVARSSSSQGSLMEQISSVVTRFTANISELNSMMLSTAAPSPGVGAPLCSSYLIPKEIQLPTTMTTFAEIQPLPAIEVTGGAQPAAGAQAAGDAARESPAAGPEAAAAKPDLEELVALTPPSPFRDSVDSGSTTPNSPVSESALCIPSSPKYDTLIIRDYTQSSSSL

The compound `CC1Cn2nc(COc3ccccc3)cc2CN1C(=O)c1cccc(C#N)c1` (stereo not shown) [Compound 50] showed a melting point of 53.9 °C. Further, in series [1] (concentration in mol/L), the pEC50 was 6.36. Further, the EC50 in series [1] (read-out: EC50) worked out at 0.437 µM. For the same compound, the Emax in series [1] (setting [2]) is given as 59%.
Regarding `CC1Cn2nc(COc3ccccc3)cc2CN1C(=O)c1ccc(F)cc1` (stereo not shown) [Compound 46], the melting point was over 300 °C. In addition, the pEC50 in series [1] (concentration in mol/L) is under 4.52. Besides, the EC50 in series [1] (read-out: EC50) was over 30.2 µM. The Emax in series [1] (setting [2]) is recorded as 35%.
In turn, `N#Cc1ccc(C(=O)N2CCn3nc(COc4ccccc4)cc3C2)cc1F` [Compound 27] returned a melting point of 60.3 °C. In addition, the Emax in series [1] (setting [3]) is 23%. The pEC50 in series [1] (concentration in mol/L) is under 4.52. Besides, the EC50 in series [1] (read-out: EC50) is over 30.2 µM.
In the same order, the values of `O=C(c1ncccc1Cl)N1CCn2nc(COc3ccccc3)cc2C1` [Compound 29] are 60 °C, 47%, under 5.00 and over 10 µM.
As for `O=C(c1cncc(F)c1)N1CCn2nc(COc3cccc(F)c3)cc2C1` [Compound 23], the melting point is over 300 °C. Also, in series [1] (setting [3]), the Emax was 58%. In series [1] (concentration in mol/L, read-out: pEC50 (converted)), the EC50 was 1.51 µM. Moreover, the EC50 in series [1] (read-out: EC50) stood at 1.37 µM.
`O=C(c1c(F)cccc1F)N1CCn2nc(COc3ccccc3)cc2C1` [Compound 6] gave a melting point of 95.8 °C. Further, the Emax in series [1] (setting [3]) amounted to 74%. Also, in series [1] (concentration in mol/L), the pEC50 was 6.53. Besides, in series [1] (read-out: EC50), the EC50 came out at 0.292 µM.
The matching figures for `Cc1cccnc1C(=O)N1CCn2nc(COc3cccc(F)c3)cc2C1` [Compound 14]: 125.4 °C, 51%, under 5.00 and over 10 µM.
In the same order, the values of `Cc1ccc(C(=O)N2CCn3nc(COc4cccc(F)c4)cc3C2)cn1` [Compound 15] are 88.2 °C, 30%, under 4.52 and over 30.2 µM.
In turn, `CC1Cn2nc(COc3ccccc3)cc2CN1C(=O)c1cccc(C#N)c1` (stereo not shown) [Compound 49] displayed a melting point of over 300 °C. In addition, in series [1] (setting [3]), the Emax turned out to be 52%. The negative logarithm of the EC50 (pEC50) in series [1] (concentration in mol/L) was found to be 5.56. Further, in series [1] (read-out: EC50), the EC50 came to 2.75 µM.
In turn, `N#Cc1cccc(C(=O)N2CCn3nc(COc4cccc(F)c4)cc3C2)c1` [Compound 30] gave a melting point of 101.5 °C. Also, the Emax in series [1] (setting [3]) came to 59%. In addition, the pEC50 in series [1] (concentration in mol/L) stood at 6.48. Moreover, the EC50 in series [1] (read-out: EC50) amounted to 0.331 µM.
In the case of `CC1CN(C(=O)c2cccc(C#N)c2)Cc2cc(COc3ccccc3)nn21` (stereo not shown) [Compound 43], the melting point is 88.8 °C. Besides, the Emax in series [1] (setting [3]) turned out to be 72%. The pEC50 in series [1] (concentration in mol/L) is 6.25. In series [1] (read-out: EC50), the EC50 came out at 0.562 µM.
For the compound `N#Cc1cc(F)cc(C(=O)N2CCn3nc(COc4cccc(F)c4)cc3C2)c1` [Compound 31], the melting point was determined as 76.8 °C. The Emax in series [1] (setting [3]) was determined as 54%. Further, in series [1] (concentration in mol/L), the pEC50 was 6.77. Besides, the EC50 in series [1] (read-out: EC50) amounted to 0.17 µM.
The compound `O=C(c1ccc(F)c(F)c1)N1CCn2nc(COc3cccc(F)c3)cc2C1` [Compound 13] registered a melting point of 112.7 °C. In addition, the Emax in series [1] (setting [3]) came to 75%. Also, the pEC50 in series [1] (concentration in mol/L) is given as 6.23. The EC50 in series [1] (read-out: EC50) is 0.587 µM.
In the case of `N#Cc1cc(C(=O)N2CCn3nc(COc4ccccc4)cc3C2)ccc1F` [Compound 28], the melting point worked out at 133.3 °C. The Emax in series [1] (setting [3]) came out at 81%. The negative-log EC50 (pEC50) in series [1] (concentration in mol/L) is listed as 5.78. In series [1] (read-out: EC50), the EC50 worked out at 1.66 µM.
`O=C(c1ccc(F)cc1F)N1CCn2nc(COc3cccc(F)c3)cc2C1` [Compound 11] displayed a melting point of 79.7 °C. Further, in series [1] (setting [3]), the Emax was found to be 82%. Besides, the negative logarithm of the EC50 (pEC50) in series [1] (concentration in mol/L) turned out to be 6.56. Also, in series [1] (read-out: EC50), the EC50 stood at 0.273 µM.
`O=C(c1cccc(F)c1)N1CCn2nc(COc3ccc(F)cc3)cc2C1` [Compound 39] came in with a melting point of over 300 °C. Besides, the Emax in series [1] (setting [3]) came out at 55%. For the same compound, the pEC50 in series [1] (concentration in mol/L) came to 6.68. The EC50 in series [1] (read-out: EC50) came out at 0.209 µM.
`O=C(c1ccc(F)cc1)N1CCn2nc(COc3ccccc3)cc2C1C(F)(F)F` (racemic) [Compound 53] registered a melting point of 53.1 °C. In addition, the Emax in series [1] (setting [3]) is 67%. In addition, the EC50 in series [1] (read-out: EC50) is 2.63 µM.
In the case of `O=C(c1ccnnc1)N1CCn2nc(COc3cccc(F)c3)cc2C1` [Compound 36], the melting point was determined as 282.6 °C. Also, the Emax in series [1] (setting [3]) amounted to 39%. Also, the pEC50 in series [1] (concentration in mol/L) was under 5.00. The EC50 in series [1] (read-out: EC50) was over 10 µM.
`O=C(c1ccc(F)cc1)N1CCn2nc(COc3ccccc3)c(Cl)c2C1` [Compound 55] yielded a melting point of 136 °C. In addition, the Emax in series [1] (setting [3]) was 23%. Moreover, the pEC50 in series [1] (concentration in mol/L) turned out to be 5.53. Also, the EC50 in series [1] (read-out: EC50) was found to be 2.95 µM.
In the same order, the values of `N#Cc1cc(C(=O)N2CCn3nc(COc4cccc(F)c4)cc3C2)ccc1F` [Compound 33] are 57.1 °C, 71%, 5.98 and 1.05 µM.
For the compound `O=C(c1ccc(F)cc1)N1CCn2nc(COc3ccccc3)cc2C1` [Compound 1], the melting point turned out to be 106 °C. In addition, the Emax in series [1] (setting [3]) was 67%. Besides, the pEC50 in series [1] (concentration in mol/L) amounted to 6.79. Moreover, in series [1] (read-out: EC50), the EC50 stood at 0.161 µM.
As to `O=C(c1ncccc1F)N1CCn2nc(COc3cccc(F)c3)cc2C1` [Compound 20], the melting point stood at 114 °C. Moreover, the Emax in series [1] (setting [3]) was 65%. In series [1] (concentration in mol/L), the pEC50 is 5.53. The EC50 in series [1] (read-out: EC50) stood at 2.95 µM.
The matching figures for `O=C(c1ncc(F)cc1F)N1CCn2nc(COc3cccc(F)c3)cc2C1` [Compound 21]: over 300 °C, 77%, 5.89 and 1.28 µM.

The term pEC50 denotes the EC50 on a negative log10 scale, so that one unit is a factor of ten. Broadly, the Emax is the greatest response seen or fitted, relative to the assay's reference. The term melting point denotes the temperature, or range, at which the solid turns liquid.
